From patent US20260001914A1, “MACROCYCLIC PEPTIDES TARGETING KRAS” (Merck Sharp & Dohme LLC, priority 2022, published 2026)
*1 amine or outer side, *2 acyl side, *3 side chain or, on linkers, in order; H or OH if unused. Where a SMILES comes first, the peptide text is derived from it. Bridges are numbered along the chain shown (N, C = ends). [ ]: non-standard residue; d: D form. X34 = O=C(C[C@@H](Cc1ccccc1)C(=O)[*:2])C12CC(CN[*:1])(C1)C2; NMeNva(5-imidazol-1-yl) = CN[C@@H](CCCn1ccnc1)C(=O)O; Phe(4-guanidino) = N=C(N)Nc1ccc(C[C@H](N)C(=O)O)cc1; Ala(pyrimidin-5-yl) = N[C@@H](Cc1cncnc1)C(=O)O; NMe3Pal(6-Me) = CN[C@@H](Cc1ccc(C)nc1)C(=O)O; NMe3Pal(5-F) = CN[C@@H](Cc1cncc(F)c1)C(=O)O; NMeHis(τ-Me) = CN[C@@H](Cc1cn(C)cn1)C(=O)O; 3Pal(6-OMe) = COc1ccc(C[C@H](N)C(=O)O)cn1; Abu(4,4,4-F3) = N[C@@H](CC(F)(F)F)C(=O)O; X11 = CC(C)(F)CC[C@H](N[*:1])C(=O)[*:2]; Nle(5,5-F2) = CC(F)(F)CC[C@H](N)C(=O)O; NHCH2CH2SCH2CO = O=C(CSCCN[*:1])[*:2]; X21 = O=C([C@@H]1C[C@H]1CN[*:1])[*:2]; X35 = CN([C@@H](CCCF)C(=O)[*:2])[*:1]; Ala(cPent) = N[C@@H](CC1CCCC1)C(=O)O; Phe(2-F) = N[C@@H](Cc1ccccc1F)C(=O)O; NMe3Pal = CN[C@@H](Cc1cccnc1)C(=O)O; X1 = O=C(C12CC(CN[*:1])(C1)C2)[*:2]; NMeR = CN[C@@H](CCCNC(=N)N)C(=O)O; Ala(cPr) = N[C@@H](CC1CC1)C(=O)O; NMeF = CN[C@@H](Cc1ccccc1)C(=O)O; PhLac = O=C(O)[C@@H](O)Cc1ccccc1; X4 = O=C([C@H](CCCF)N[*:1])[*:2]; 3Pal = N[C@@H](Cc1cccnc1)C(=O)O; Ahp(2) = CCCCC[C@H](N)C(=O)O; Cba = N[C@@H](CC1CCC1)C(=O)O; hLeu = CC(C)CC[C@H](N)C(=O)O; hSer = N[C@@H](CCO)C(=O)O; αMeC = C[C@](N)(CS)C(=O)O; NMeA = CN[C@@H](C)C(=O)O; Nle = CCCC[C@H](N)C(=O)O; Nva = CCC[C@H](N)C(=O)O

Target: KRAS-G12D protein (Homo sapiens, UniProt P01116, G12D)
Sequence (P01116 1-188 isoform P01116-2 G12D): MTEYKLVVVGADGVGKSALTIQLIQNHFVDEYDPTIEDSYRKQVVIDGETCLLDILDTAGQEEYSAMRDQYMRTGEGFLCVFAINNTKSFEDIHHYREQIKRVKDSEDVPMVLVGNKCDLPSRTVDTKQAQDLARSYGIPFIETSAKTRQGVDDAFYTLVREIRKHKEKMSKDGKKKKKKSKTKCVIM
Test: SOS-mediated nucleotide exchange assay (BODIPY-GDP / Tb-streptavidin TR-FRET)
Assay type: biochemical

Structure (SMILES)	EC50 [nM]
C[C@H]1C(=O)N[C@@H](Cc2cncnc2)C(=O)N[C@@H](CC2CC2)C(=O)N[C@@H](Cc2ccccc2F)C(=O)N[C@@H](CCC(C)(C)F)C(=O)N(C)[C@@H](Cc2ccccc2)C(=O)NCC23CC(C2)(C3)C(=O)C[C@@H](Cc2ccccc2)C(=O)N1C [compound 273, cyclo(CPhe-NMeA-PyrimAla-cPrA-Phe2F-hL3F-NMeF-amBCP)] (cyclo([Ala(cPr)][Phe(2-F)][X11][NMeF][X34][NMeA][Ala(pyrimidin-5-yl)]))	1
CCCCC[C@@H]1NC(=O)[C@H](Cc2ccc(OC)cc2)NC(=O)[C@H](CC2CCC2)NC(=O)[C@H](Cc2cnn(C)c2)NC(=O)[C@H](CCCNC(=N)N)NC(=O)[C@H](Cc2ccccc2)NC(=O)CSC[C@@](C)(C(N)=O)NC(=O)[C@H](Cc2ccccc2)N(C)C1=O [compound 372, cyclo(F-R-Ala4PyzlMe-cBuA-TyrOMe-Ahp-NMeF-aMeCl-ClAc)]	10.2
CCCC[C@@H]1NC(=O)[C@H](CC(F)(F)F)NC(=O)[C@H](CC2CCC2)NC(=O)[C@H](Cc2cccnc2)NC(=O)[C@H](CCCNC(=N)N)NC(=O)[C@H](Cc2ccccc2)NC(=O)CSC[C@@](C)(C(N)=O)NC(=O)[C@H](Cc2ccccc2)N(C)C1=O [compound 54, cyclo(F-R-3Pal-cBuA-AbuF3-Nle-NMeF-aMeCl-ClAc)] ({CH2CO}-FR[3Pal][Cba][Abu(4,4,4-F3)][Nle][NMeF][αMeC]-NH2; thioether N-8)	861
CCCCC[C@@H]1NC(=O)[C@H](Cc2ccc(OC)cc2)NC(=O)[C@H](CCCC)NC(=O)[C@H](Cc2ccc(NC(=N)N)cc2)NC(=O)[C@H](CCCNC(=N)N)NC(=O)[C@H](Cc2ccccc2)NC(=O)CSC[C@H](C(N)=O)NC(=O)[C@H](Cc2ccccc2)N(C)C1=O [compound 350, cyclo(F-R-Phe4Gn-Nle-TyrOMe-Abp-NMeF-dCl-ClAc)] ({CH2CO}-FR[Phe(4-guanidino)][Nle]Y(Me)[Ahp(2)][NMeF][dC]-NH2; thioether N-8)	35.4
C[C@H]1C(=O)N[C@@H](Cc2cncnc2)C(=O)N[C@@H](CC2CCC2)C(=O)N[C@@H](Cc2ccccc2F)C(=O)N[C@@H](CCC(C)(C)F)C(=O)N(C)[C@@H](Cc2ccccc2)C(=O)NCC23CC(C2)(C3)C(=O)O[C@@H](Cc2ccccc2)C(=O)N1C [compound 225, cyclo(FLac-NMeA-PyrimAla-cBuA-Phe2F-hL3F-NMeF-amBCP)] (cyclo([Cba][Phe(2-F)][X11][NMeF][X1][PhLac][NMeA][Ala(pyrimidin-5-yl)]))	1.87
C[C@H]1C(=O)N[C@@H](Cc2cccnc2)C(=O)N[C@@H](CC2CC2)C(=O)N[C@@H](Cc2ccccc2F)C(=O)N[C@@H](CCC(C)(C)F)C(=O)N(C)[C@@H](Cc2cncc(F)c2)C(=O)NCC23CC(C2)(C3)C(=O)O[C@@H](Cc2ccccc2)C(=O)N1C [compound 284, cyclo(FLac-NMeA-3Pal-cPrA-Phe2F-hL3F-NMe3Pal5F-amBCP)] (cyclo([3Pal][Ala(cPr)][Phe(2-F)][X11][NMe3Pal(5-F)][X1][PhLac][NMeA]))	2
CCCC[C@@H]1NC(=O)[C@H](Cc2cccnc2)NC(=O)[C@H](CCCn2ccnc2)N(C)C(=O)[C@H](Cc2ccccc2)NC(=O)[C@@H]2C[C@H]2CNC(=O)[C@H](Cc2cccnc2)N(C)C(=O)[C@H](CCCC)NC(=O)[C@H](Cc2ccccc2F)NC1=O [compound 251, cyclo(F-NMeNvalmid-3Pal-Nle-Phe2F-Nle-NMe3Pal-tamcPr)] (cyclo(F[NMeNva(5-imidazol-1-yl)][3Pal][Nle][Phe(2-F)][Nle][NMe3Pal][X21]))	272
CC(C)CC[C@@H]1NC(=O)[C@H](Cc2ccccc2F)NC(=O)[C@H](CC2CCCC2)NC(=O)[C@H](Cc2cncnc2)NC(=O)[C@H](C)N(C)C(=O)[C@H](Cc2ccccc2)OC(=O)C23CC(CNC(=O)[C@H](Cc4ccccc4)N(C)C1=O)(C2)C3 [compound 135, cyclo(FLac-NMcA-PyrimAla-cPeA-Phe2F-hL-NMeF-amBCP)] (cyclo([Ala(cPent)][Phe(2-F)][hLeu][NMeF][X1][PhLac][NMeA][Ala(pyrimidin-5-yl)]))	4.13
CCCC[C@@H]1NC(=O)[C@H](Cc2ccc(C(F)(F)F)nc2)NC(=O)[C@H](CCCn2ccnc2)N(C)C(=O)[C@H](Cc2ccccc2)OC(=O)C23CC(CNC(=O)[C@H](Cc4ccccc4)N(C)C(=O)[C@H](CCCC)NC(=O)[C@H](Cc4ccccc4F)NC1=O)(C2)C3 (single isomer, unassigned) [compound 218, cyclo(FLac-NMeNvalmid-4CF33Pal-Nle-Phe2F-Nle-NMeF-amBCP)]	188
CCCC[C@@H]1NC(=O)[C@H](Cc2cccnc2)NC(=O)[C@H](CCCF)N(C)C(=O)[C@H](Cc2ccccc2)OC(=O)C23CC(CNC(=O)[C@H](Cc4cccnc4)N(C)C(=O)[C@H](CCCC)NC(=O)[C@H](Cc4ccccc4F)NC1=O)(C2)C3 [compound 239, cyclo(FLac-NMeNvaF-3Pal-Nle-Phe2F-Nle-NMe3Pal-amBCP)] (cyclo([3Pal][Nle][Phe(2-F)][Nle][NMe3Pal][X1][PhLac][X35]))	297
CCCCC[C@@H]1NC(=O)[C@H](Cc2ccc(OC)cc2)NC(=O)[C@H](CC2CCC2)NC(=O)[C@H](Cc2ccc(OC)nc2)NC(=O)[C@H](CCCNC(=N)N)NC(=O)[C@H](Cc2ccccc2)NC(=O)CSC[C@@](C)(C(N)=O)NC(=O)[C@H](Cc2ccccc2)N(C)C1=O [compound 365, cyclo(F-R-40Me3Pal-cBuA-TyrOMe-Ahp-NMeF-aMeCl-ClAc)] ({CH2CO}-FR[3Pal(6-OMe)][Cba]Y(Me)[Ahp(2)][NMeF][αMeC]-NH2; thioether N-8)	50.3
CCCCC[C@@H]1NC(=O)[C@H](Cc2ccc(OC)cc2)NC(=O)[C@H](CC2CCC2)NC(=O)[C@H](Cc2cccnc2)NC(=O)[C@H](C)N(C)C(=O)[C@H](Cc2ccccc2)OC(=O)C23CC(CNC(=O)[C@H](Cc4ccccc4)N(C)C1=O)(C2)C3 [compound 227, cyclo(FLac-NMeA-3Pal-cBuA-TyrOMe-Ahp-NMeF-amBCP)] (cyclo([3Pal][Cba]Y(Me)[Ahp(2)][NMeF][X1][PhLac][NMeA]))	37.9
CCCCC[C@@H]1NC(=O)[C@H](Cc2ccc(OC)cc2)NC(=O)[C@H](CC2CCC2)NC(=O)[C@H](Cc2cccnc2)NC(=O)[C@H](CCCNC(=N)N)NC(=O)[C@H](Cc2ccccc2)NC(=O)CSC[C@@](C)(C(N)=O)NC(=O)[C@H](Cc2cn(C)cn2)N(C)C1=O [compound 378, cyclo(F-R-3Pal-cBuA-TyrOMe-Ahp-NMeHis1Me-aMeCl-ClAc)] ({CH2CO}-FR[3Pal][Cba]Y(Me)[Ahp(2)][NMeHis(τ-Me)][αMeC]-NH2; thioether N-8)	45.2
CCCC[C@@H]1NC(=O)[C@H](Cc2ccc(O)cc2)NC(=O)[C@H](CCOC)NC(=O)[C@H](Cc2ccc(O)cc2)NC(=O)[C@H](CCCNC(=N)N)NC(=O)[C@H](Cc2ccccc2)NC(=O)CSCCNC(=O)[C@H](Cc2ccccc2)N(C)C1=O [compound 77, cyclo(F-R-Y-hSOMe-Y-Nle-NMeF-Cysteamine-ClAc)] (cyclo(FRY[hSer](Me)Y[Nle][NMeF][NHCH2CH2SCH2CO]))	2850
CCC[C@@H]1NC(=O)[C@H](Cc2ccc(O)cc2)NC(=O)[C@H](CC(C)C)NC(=O)[C@H](Cc2ccc(O)cc2)NC(=O)[C@H](CCCNC(=N)N)N(C)C(=O)[C@H](Cc2ccccc2)NC(=O)CSC[C@H](C(N)=O)NC(=O)[C@H](Cc2ccccc2)N(C)C1=O [compound 176, cyclo(F-NMeR-Y-L-Y-Nva-NMeF-dCl-ClAc)] ({CH2CO}-F[NMeR]YLY[Nva][NMeF][dC]-NH2; thioether N-8)	2420
C[C@H]1C(=O)N[C@@H](Cc2cccnc2)C(=O)N[C@@H](CC2CCC2)C(=O)N[C@@H](Cc2ccccc2F)C(=O)N[C@@H](CCC(C)(F)F)C(=O)N(C)[C@@H](Cc2cncc(F)c2)C(=O)NCC23CC(C2)(C3)C(=O)O[C@@H](Cc2ccccc2)C(=O)N1C [compound 285, cyclo(FLac-NMeA-3Pal-cBuA-Phe2F-Nle3F2-NMe3Pal5F-amBCP)] (cyclo([3Pal][Cba][Phe(2-F)][Nle(5,5-F2)][NMe3Pal(5-F)][X1][PhLac][NMeA]))	13
CCCC[C@@H]1NC(=O)[C@H](Cc2ccccc2F)NC(=O)[C@H](CCCF)NC(=O)[C@H](Cc2cccnc2)NC(=O)[C@H](C)N(C)C(=O)[C@H](Cc2ccccc2)OC(=O)C23CC(CNC(=O)[C@H](Cc4cccnc4)N(C)C1=O)(C2)C3 [compound 120, cyclo(FLac-NMeA-3Pal-NvaF-Phe2F-Nle-NMe3Pal-amBCP)] (cyclo([3Pal][X4][Phe(2-F)][Nle][NMe3Pal][X1][PhLac][NMeA]))	35.1
CCCC[C@@H]1NC(=O)[C@H](Cc2cccnc2)NC(=O)[C@H](C)N(C)C(=O)[C@H](Cc2ccccc2)OC(=O)C23CC(CNC(=O)[C@H](Cc4ccc(C)nc4)N(C)C(=O)[C@H](CCCC)NC(=O)[C@H](Cc4ccccc4F)NC1=O)(C2)C3 [compound 402, cyclo(FLac-NMeA-3Pal-Nle-Phe2F-Nle-NMe3Pal4Me-amBCP)] (cyclo([3Pal][Nle][Phe(2-F)][Nle][NMe3Pal(6-Me)][X1][PhLac][NMeA]))	18
CCCC[C@@H]1NC(=O)[C@H](Cc2ccccc2F)NC(=O)C(CC2CC(F)(F)C2)NC(=O)[C@H](Cc2cncnc2)NC(=O)[C@H](C)N(C)C(=O)[C@H](Cc2ccccc2)OC(=O)C23CC(CNC(=O)[C@H](Cc4cccnc4)N(C)C1=O)(C2)C3 (single isomer, unassigned) [compound 122, cyclo(FLac-NMeA-PyrimAla-rF2Cba-Phe2F-Nle-NMe3Pal-amBCP)]	236
CCCC[C@@H]1NC(=O)[C@H](Cc2cccnc2)NC(=O)[C@H](C)N(C)C(=O)[C@H](Cc2ccccc2)OC(=O)C23CC(CNC(=O)[C@H](Cc4cccnc4)N(C)C(=O)[C@H](CCC)NC(=O)[C@H](Cc4ccccc4F)NC1=O)(C2)C3 [compound 116, cyclo(FLac-NMeA-3Pal-Nle-Phe2F-Nva-NMe3Pal-amBCP)] (cyclo([3Pal][Nle][Phe(2-F)][Nva][NMe3Pal][X1][PhLac][NMeA]))	154
CCCC[C@@H]1NC(=O)[C@H](Cc2cncnc2)NC(=O)[C@H](CCCn2ccnc2)N(C)C(=O)[C@H](Cc2ccccc2)OC(=O)C23CC(CNC(=O)[C@H](Cc4cccnc4)N(C)C(=O)[C@H](CCCC)NC(=O)[C@H](Cc4ccccc4F)NC1=O)(C2)C3 [compound 240, cyclo(FLac-NMeNvalmid-PyrimAla-Nle-Phe2F-Nle-NMe3Pal-amBCP)] (cyclo([NMe3Pal][X1][PhLac][NMeNva(5-imidazol-1-yl)][Ala(pyrimidin-5-yl)][Nle][Phe(2-F)][Nle]))	27.2
